The compounds below were run against T1, His-tagged human recombinant DDR-2 kinase domain (His-TEV-DDR2 467-855 aa) (Homo sapiens, UniProt Q16832) (assay: Autophosphorylation assay for biochemical activity testing of DDR2 (HTRF)). Details: 4 nM DDR2 kinase domain, 150 μM ATP, 150 min at 22° C.
T1 construct: His-TEV-DDR2 467-855 aa
T1 sequence (Q16832 467-855): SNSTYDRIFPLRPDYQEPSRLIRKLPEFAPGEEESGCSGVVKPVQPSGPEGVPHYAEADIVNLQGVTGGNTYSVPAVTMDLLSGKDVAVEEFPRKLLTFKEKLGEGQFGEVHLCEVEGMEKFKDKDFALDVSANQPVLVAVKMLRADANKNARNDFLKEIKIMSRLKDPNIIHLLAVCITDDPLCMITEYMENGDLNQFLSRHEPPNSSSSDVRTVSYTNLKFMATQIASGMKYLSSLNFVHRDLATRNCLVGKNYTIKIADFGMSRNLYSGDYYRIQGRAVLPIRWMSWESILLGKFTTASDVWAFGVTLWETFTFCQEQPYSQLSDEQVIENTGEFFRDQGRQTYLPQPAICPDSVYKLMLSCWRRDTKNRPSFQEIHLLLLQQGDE
In short: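 Phospho-tyrosine was detected by HTRF between XL665 anti-6His and cryptate anti-phosphotyrosine PT66 antibodies, using the emission ratio. Inhibition was referenced to the inhibitor-free reaction.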

Compound `CNC(=O)c1cc(Oc2ccc(CNC(=O)Nc3cnc4ccccc4c3)cc2)ccn1` [compound 10] has an IC50 of 290 nM.

Same assay, conditions: biochemical DDR2 autophosphorylation

`CNC(=O)c1cc(Oc2ccc(CNC(=O)Nc3cc(C(F)(F)F)c(Cl)cc3OC)cc2F)ccn1` [compound 231, 4-{4-[3-(4-Chloro-2-methoxy-5-trifluoromethyl-phenyl)-ureidomethyl]-2-fluoro-phenoxy}-pyridine-2-carboxylic acid methylamide] and `CCN(CC)CCOc1cc(Cl)c(C(F)(F)F)cc1NC(=O)NCc1ccc(Oc2ccnc(C(=O)NC)c2)cc1` [compound 132, 4-(4-{3-[4-Chloro-2-(2-diethylamino-ethoxy)-5-trifluoromethyl-phenyl]-ureidomethyl}-phenoxy)-pyridine-2-carboxylic acid methylamide] are within 1.5-fold of each other in IC50: 100 nM for the first, 125 nM for the second.

`CNC(=O)c1cc(Oc2ccc(CNC(=O)Nc3cc(C(F)(F)F)ccc3OCCO)cc2)ccn1` [compound 197, 4-(4-{3-[2-(2-Hydroxy-ethoxy)-5-trifluoromethyl-phenyl]-ureidomethyl}-phenoxy)-pyridine-2-carboxylic acid methylamide] and `CNC(=O)c1cc(Oc2ccc(CNC(=O)Nc3cc(C(F)(F)F)ccc3OCCOC)cc2C)ccn1` [compound 168, 4-(4-{3-[2-(2-Methoxy-ethoxy)-5-trifluoromethyl-phenyl]-ureidomethyl}-2-methyl-phenoxy)-pyridine-2-carboxylic acid methylamide] are within 1.5-fold of each other in IC50: 96 nM for the first, 130 nM for the second.

Going from `CNC(=O)c1cc(Oc2ccc(CNC(=O)Nc3cc(Cl)c(C)cc3OCCN)cc2)ccn1` [compound 176, 4-(4-{3-[2-(2-Amino-ethoxy)-5-chloro-4-methyl-phenyl]-ureidomethyl}-phenoxy)-pyridine-2-carboxylic acid methylamide] to `CNC(=O)c1cc(Oc2ccc(CNC(=O)Nc3cc(C)c(Cl)cc3OCCN(C)C(=O)OC(C)(C)C)cc2)ccn1` [compound 244, [2-(5-Chloro-4-methyl-2-{3-[4-(2-methylcarbamoyl-pyridin-4-yloxy)-benzyl]-ureido}-phenoxy)-ethyl]-methyl-carbamic acid tert-butyl ester], the IC50 rises from 27 nM to 620 nM (23-fold). The first is the more potent here.

`CCc1ccccc1NC(=O)NCc1ccc(Oc2ccncc2)cc1` [compound 28] and `O=C(NCc1ccc(Oc2ccncc2)cc1)Nc1cccc(Cl)c1Cl` [compound 13] cannot be ordered by IC50: ≥ 100000 nM for the first, ≥ 100000 nM for the second.

Going from `O=C(NCc1ccc(Oc2ccncc2)cc1)Nc1ccc(Cl)cc1C(F)(F)F` [compound 40, 1-(4-Chloro-2-trifluoromethyl-phenyl)-3-[4-(pyridin-4-yloxy)-benzyl]-urea] to `Cc1cc(C)cc(NC(=O)NCc2ccc(Oc3ccncc3)cc2)c1` [compound 44, 1-(3,5-Dimethyl-phenyl)-3-[4-(pyridin-4-yloxy)-benzyl]-urea], the IC50 falls from 9900 nM to 1800 nM (5.5-fold).

Compared with `CNC(=O)c1cc(Oc2ccc(CNC(=O)Nc3cc(C(F)(F)F)c(Cl)cc3OCC(=O)OC(C)(C)C)cc2)ccn1` [compound 107, (5-Chloro-2-{3-[4-(2-methylcarbamoyl-pyridin-4-yloxy)-benzyl]-ureido}-4-trifluoromethyl-phenoxy)-acetic acid tert-butyl ester], `CNC(=O)c1cc(Oc2ccc(CNC(=O)Nc3cc(C(F)(F)F)c(Cl)cc3OCCN3C(=O)c4ccccc4C3=O)cc2)ccn1` [compound 242, 4-[4-(3-{4-Chloro-2-[2-(1,3-dioxo-1,3-dihydro-isoindol-2-yl)-ethoxy]-5-trifluoromethyl-phenyl}-ureidomethyl)-phenoxy]-pyridine-2-carboxylic acid methylamide] is 20-fold higher in IC50: 22 nM for the first, 440 nM for the second.

Going from `CCN(CC)CCOc1cc(Cl)c(C)cc1NC(=O)NCc1ccc(Oc2ccnc(C(=O)NC)c2)c(C)c1` [compound 136, 4-(4-{3-[4-Chloro-2-(2-diethylamino-ethoxy)-5-methyl-phenyl]-ureidomethyl}-2-methyl-phenoxy)-pyridine-2-carboxylic acid methylamide] to `CNC(=O)c1cc(Oc2ccc(CNC(=O)Nc3cc(OC)c([N+](=O)[O-])cc3OC)cc2)ccn1` [compound 81, 4-{4-[3-(2,5-Dimethoxy-4-nitro-phenyl)-ureidomethyl]-phenoxy}-pyridine-2-carboxylic acid methylamide], the IC50 falls from 390 nM to 230 nM (1.7-fold).

For `COc1ccc(NC(=O)NCc2ccc(Oc3ccncc3)cc2)cc1` [compound 17], the IC50 was 13000 nM.

The compounds below were run against T2, HEK293 transfected with human DDR2 (Homo sapiens, UniProt Q16832) (assay: Phospho-DDR2 cellular assay (collagen II induced DDR2 phosphorylation, ELISA)). Details: cellular phospho-DDR2; read-out: IC50 [p-DDR2].
T2 construct: expressed in transfected cells; host or cells: HEK293 (PLT460F_(DDR2)-P7-1)
T2 sequence (Q16832 22-855): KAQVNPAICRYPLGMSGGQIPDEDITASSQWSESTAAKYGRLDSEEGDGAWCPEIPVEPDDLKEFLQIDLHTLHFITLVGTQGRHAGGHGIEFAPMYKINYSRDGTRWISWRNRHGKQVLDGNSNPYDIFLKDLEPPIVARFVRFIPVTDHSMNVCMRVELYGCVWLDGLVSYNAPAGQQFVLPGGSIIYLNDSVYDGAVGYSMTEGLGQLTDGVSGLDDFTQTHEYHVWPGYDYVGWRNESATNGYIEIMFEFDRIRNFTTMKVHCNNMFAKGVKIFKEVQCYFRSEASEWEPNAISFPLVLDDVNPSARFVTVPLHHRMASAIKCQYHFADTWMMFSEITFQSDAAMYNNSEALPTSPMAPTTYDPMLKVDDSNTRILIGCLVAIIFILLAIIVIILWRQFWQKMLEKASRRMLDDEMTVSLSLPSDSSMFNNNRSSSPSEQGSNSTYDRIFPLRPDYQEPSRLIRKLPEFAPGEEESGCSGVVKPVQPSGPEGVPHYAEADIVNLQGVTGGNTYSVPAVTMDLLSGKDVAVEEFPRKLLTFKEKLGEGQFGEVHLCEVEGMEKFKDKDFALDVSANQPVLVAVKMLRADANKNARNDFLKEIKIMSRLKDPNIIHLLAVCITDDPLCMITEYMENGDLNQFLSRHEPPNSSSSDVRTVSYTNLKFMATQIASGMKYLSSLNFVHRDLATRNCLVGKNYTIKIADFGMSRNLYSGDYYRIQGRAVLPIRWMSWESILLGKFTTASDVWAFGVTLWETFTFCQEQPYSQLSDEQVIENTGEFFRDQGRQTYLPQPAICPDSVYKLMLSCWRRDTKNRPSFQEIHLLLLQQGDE
Assay type: cell-based
Experimental: Assays were performed in a 384 well plate format, using cell line HEK293 transfected with human DDR2 (PLT460F_(DDR2)-P7-1)
Cells were seeded at a density of 10'000 cells/well in 384well poly-D-lysine coated Black/clear plate (Cellcoat Greiner) and incubated in DMEM medium in the presence of 10% fetal bovine serum at 37° C., 5% CO2 for 48 h. Medium was replaced by serum-free medium and cells were incubated at 37° C., 5% CO2 for 8 h. Compound to be tested in 5% DMSO or 5% DMSO and 50 μg/ml of chicken collagen II were added and cells were incubated at 37° C., 5% CO2 for 16 h
Cells were rinsed with ice-cold PBS, lysed with lysis buffer (M-PER Thermo #78501) for 30 min at room temperature and centrifuged for 1 min at 1000 RPM. In parallel, White High binding 384 well plates (Corning) were coated with mouse anti-human DDR2 capture antibody (R&D Systems kit DuoSet IC Human phospho-DDR2 ELISA), overnight at RT.
An aliquot of cell lysate was transferred to the coated plates and incubated for 2 h at RT. Plates were washed and mouse anti-phospho-tyrosine detection antibody (R&D Systems kit DuoSet IC Human phospho-DDR2 ELISA) conjugated to horse radish peroxidase (HRP) was added for 2 h at RT. Plates were washed and chemiluminescent substrate for HRP (Thermo) was added for 15 min at RT. Luminescence was measured on a luminometer.

`CNC(=O)c1cc(Oc2ccc(CNC(=O)Nc3ccc(Cl)c(Cl)c3)cc2)ccn1` [compound 3] and `CNC(=O)c1cc(Oc2ccc(CNC(=O)Nc3ccc(Cl)c(C)c3)cc2)ccn1` [compound 74, 4-{4-[3-(4-Chloro-3-methyl-phenyl)-ureidomethyl]-phenoxy}-pyridine-2-carboxylic acid methylamide] are within 1.5-fold of each other in IC50: 195 nM for the first, 175 nM for the second.

`CNC(=O)c1cc(Oc2ccc(CNC(=O)Nc3cccc(S(N)(=O)=O)c3)cc2)ccn1` [compound 157, 4-{4-[3-(3-Sulfamoyl-phenyl)-ureidomethyl]-phenoxy}-pyridine-2-carboxylic acid methylamide] and `CNC(=O)c1cc(Oc2ccc(CNC(=O)Nc3ccc4nsnc4c3)cc2)ccn1` [compound 76, 4-{4-[(3-Benzo[1,2,5]thiadiazol-5-yl-ureido)-methyl]-phenoxy}-pyridine-2-carboxylic acid methylamide] are within 1.5-fold of each other in IC50: 500 nM for the first, 670 nM for the second.

First: CNC(=O)c1cc(Oc2ccc(CNC(=O)Nc3cc(C(F)(F)F)ccc3CC(N)=O)cc2C)ccn1 [compound 207, 4-{4-[3-(2-Carbamoylmethyl-5-trifluoromethyl-phenyl)-ureidomethyl]-2-methyl-phenoxy}-pyridine-2-carboxylic acid methylamide]
Second: CNC(=O)c1cc(Oc2ccc(CNC(=O)Nc3cc(C(F)(F)F)ccc3CC(=O)O)cc2C)ccn1 [compound 220, (2-{3-[3-Methyl-4-(2-methylcarbamoyl-pyridin-4-yloxy)-benzyl]-ureido}-4-trifluoromethyl-phenyl)-acetic acid]
The IC50 of the first is 82-fold lower: 285 nM for the first, 23500 nM for the second. The first is the more potent here.

Going from `CNC(=O)c1cc(Oc2ccc(CNC(=O)Nc3cc(C(F)(F)F)ccc3CN3CCNCC3=O)cc2)ccn1` [compound 208, 4-(4-{3-[2-(2-Oxo-piperazin-1-ylmethyl)-5-trifluoromethyl-phenyl]-ureidomethyl}-phenoxy)-pyridine-2-carboxylic acid methylamide] to `CNC(=O)c1cc(Oc2ccc(CNC(=O)Nc3cc(C(F)(F)F)ccc3-n3ccnn3)cc2)ccn1` [compound 206, 4-{4-[3-(2-[1,2,3]Triazol-1-yl-5-trifluoromethyl-phenyl)-ureidomethyl]-phenoxy}-pyridine-2-carboxylic acid methylamide], the IC50 falls from 855 nM to 31 nM (28-fold). The second is the more potent here.

Compound `CNC(=O)c1cc(Oc2ccc(C(C)NC(=O)Nc3ccc(C)c(Cl)c3)cc2)ccn1` (stereo not shown) [compound 73, 4-(4-{1-[3-(3-Chloro-4-methyl-phenyl)-ureido]-ethyl}-phenoxy)-pyridine-2-carboxylic acid methylamide] has an IC50 of 1750 nM.

From US20150225369A1, “DDR2 INHIBITORS FOR THE TREATMENT OF OSTEOARTHRITIS” (Merck Patent GmbH, priority 2012, published 2015)
